# In US10011555B2, “Methods of treating Parkinson's disease” (University of Macau, priority 2013, dated 2018):
# What was measured:
# [1] = tested on: primary cerebellar granule neurons (CGNs); assay: MPP+-induced primary CGNs damage, cell viability by MTT; assay type: cell-based, Sprague-Dawley rats; conditions: pre-treated 6 μM to 50 μM for 2 hours, then 150 μM MPP+ for 36 hours
# Protocol: Primary cerebellar granule neurons (CGNs) were prepared from 8 days old Sprague-Dawley rats, as described in a previous publication (Du, Bales et al. 1997). CGNs cultured in vitro for 7 days were pre-treated with serial concentrations of compounds 1-5 from 6 μM to 50 μM respectively for 2 hours, vehicle group was incubated with 0.1% DMSO. The cells were then exposed to 150 μM MPP^+ for 36 hours. For assessment of the cell viability, 15 μl of 5 mg/ml MTT solution was added to each well containing cell in 100 μl of medium, and the plates were incubated for 4 hours in a humidified incubator at 37° C. After incubation, 100 μl of absolute DMSO was added and incubated for 10 min. Absorbance at 570 nm of each well was measured with a microplate reader.
# [2] = tested on: TH-positive dopaminergic neurons in the SNpc; assay: TH immunohistochemistry of SNpc in MPTP-injected mice; assay type: in vivo, C57BL/6J mice
# Protocol: Adult male C57BL/6J mice (8-10 weeks of age, 18-22 g) were used in this study. The animals were maintained in 12/12 h light/dark cycle and allowed access to food and water ad libitum. They were allowed to acclimate for 7 days before treatment. […] Then the mice were injected intraperitoneally (i.p.) with 20 mg/kg MPTP hydrochloride (Sigma Aldrich, St. Louis, Mo.), at 2 h internal for total 4 injections. Normal control group were received saline (0.1 mL/10 g) by i.p. One hour prior each MPTP injection, compound 1 (5, 10 and 20 mg/kg), rasagiline (1 mg/kg) and equal volume of vehicle (olive oil, 0.1 mL/10 g) were administrated by i.g. Then, compound 1, rasagiline or vehicle was given by i.g. once per day for total 7 days (day 1-7). Each of six groups was comprised of 10 mice. Mice were sacrificed for tissue preparation on the day 9 as described in FIG. 6. Mice in each group were anesthetized and perfused intracardially with 0.9% sodium chloride containing heparin, and then fixed with 4% paraformaldehyde (PFA). […] The results were analyzed by counting the numbers of TH-positive cells at ×10 magnifications on a stereomicroscope (BX51, Olympus Corp. Japan). TH-positive cells in 8 position-matched sections of each mouse were counted manually by operator who was blinded to the drug treatment. […]
# [3] = tested on: zebrafish dopaminergic neurons; assay: MPTP-induced dopaminergic neuron loss in zebrafish, whole-mount TH immunostaining; assay type: in vivo; conditions: co-treatment with 200 μM MPTP for 48 hours
# Protocol: Zebrafish embryo was dechorinated at 1 day post fertilization (dpf) and was cultured under co-treatment of 200 μM MPTP and various concentrations of compound 1 for 48 hours. Afterwards, zebrafish was fixed in 4% paraformaldehyde in PBS for 5 hours, rinsed and stored at −20° C. in 100% EtOH. Whole-mount immunostaining was done by standard methods (Bitzur, Kam et al. 1994). Further, compound 1 can protect MPTP-induced dopaminergic neuron loss in zebrafish in a dose-dependent manner with Emax at the concentration of 5 μM as shown in FIG. 3B in which the results were expressed quantitatively as percentages of area of TH-positive cells in comparison to untreated control group.
# [4] = tested on: primary cerebellar granule neurons (CGNs); assay: Synergistic neuroprotective effect of compound 1 and chrysin on MPP+-induced primary CGNs damage; assay type: cell-based, Sprague-Dawley rats; conditions: 25 and 50 μM of compound 1, p<0.05
# Protocol: Primary cerebellar granule neurons (CGNs) were prepared from 8 days old Sprague-Dawley rats as described (Zhang et al., 2012). […] The cell viability was estimated similarly as in Example 5.
# CGNs were also co-treated with compound 1 and chrysin to explore the pharmacological interaction between two compounds.
# [5] = tested on: zebrafish larvae; assay: MPTP-induced reduction of total distance traveled of zebrafish larvae; assay type: in vivo; conditions: 3 dpf larvae co-treated with 200 μM MPTP for 4 days
# Protocol: The 3 dpf zebrafish larvae were co-treated with 200 μM MPTP and various concentrations of compound 1 for 4 days. At 7 dpf, the total distance the larvae traveled was recorded using a 96-well plate (with 1 fish/well and 12 larvae per group) filled with 200 μl embryo medium. Larvae were allowed to accommodate in the system for an hour before data acquisition. The swimming pattern of each larva was recorded for 10 min in 3 times, with each record session separated by 10 min. The total distance traveled was estimated as the distance (in mm) that the larva had moved during one session (10 min).
# [6] = tested on: MPTP-injected mice; assay: Behavioral testing (pole, rotarod, footprint) in MPTP-injected mice; assay type: in vivo, C57BL/6J mice; conditions: 5, 10 and 20 mg/kg i.g., 7 days, MPTP 20 mg/kg i.p. x4
# Protocol: Adult male C57BL/6J mice (8-10 weeks of age, 18-22 g) were used in this study. The animals were maintained in 12/12 h light/dark cycle and allowed access to food and water ad libitum. They were allowed to acclimate for 7 days before treatment. […] Then the mice were injected intraperitoneally (i.p.) with 20 mg/kg MPTP hydrochloride (Sigma Aldrich, St. Louis, Mo.), at 2 h internal for total 4 injections. Normal control group were received saline (0.1 mL/10 g) by i.p. One hour prior each MPTP injection, compound 1 (5, 10 and 20 mg/kg), rasagiline (1 mg/kg) and equal volume of vehicle (olive oil, 0.1 mL/10 g) were administrated by i.g. Then, compound 1, rasagiline or vehicle was given by i.g. once per day for total 7 days (day 1-7). Each of six groups was comprised of 10 mice. […] All the tests were done between 9 am and 2 pm under normal animal room lighting. The pole test was performed to detect impairment of limb movement. A table tennis ball (5 cm diameter) was equipped on the top of a vertical pole (55 cm length and 1 cm diameter). The pole was wrapped with a double layer of gauze to avoid slipping. The animal was placed head upward on the table tennis ball. […] The system logs the fall as the end of the experiment for that mouse, and the total time on the rotarod was recorded. […] The average retention time on the rod was calculated. […] Their footsteps were recorded on a white absorbing paper.
# [7] = tested on: PC12 cells; assay: 6-OHDA-induced PC12 cell damage and cytotoxicity on PC12 cells, cell viability by MTT; assay type: cell-based, Rat
# Protocol: Rat pheochromocytoma cells (PC12) cells were seeded in c100 cm dishes at a density of 1.5˜2×10^6 cells/dish. After culturing in a medium with a low serum level (F-12K medium with 0.5% FBS) for 24 hours, the cells were pretreated with serial concentrations of compound 1 from 6 μM to 50 μM for 12 hours. The cells were then exposed to 1 mM 6-OHDA for 2 hours. Cell viability of cells was assessed similarly as described in Example 5.
compound,measurement,setting,value
"CC(C)[C@H](CCC(=O)O)C1=CC(C)(O)CCC1=O (stereo partly drawn) [Compound 2, (4S)-4-(3-hydroxy-3-methyl-6-oxocyclohex-1-enyl)-5-methylhexanoic acid]",concentration of Emax of neuroprotective effect on MPP+-induced primary SD rat CGNs damage,[1],50 µM
"Cc1ccc(O)c([C@H](CCC(=O)O)C(C)C)c1 [Compound 1, (R)-4-(2-hydroxy-5-methylphenyl)-5-methylhexanoic acid]",effect on MPTP-induced TH-positive cell body loss in SNpc,"[2]; compound 1 5, 10 and 20 mg/kg i.g., pre- and post-treatment, 7 days",significantly reduced the MPTP-induced TH-positive cell body loss in a dose-dependent manner
same,effect on MPTP-induced DA neuron injury,[3],attenuated MPTP-induced DA neuron injury in a dose-dependent manner
same,concentration of Emax of protection against MPTP-induced dopaminergic neuron loss in zebrafish,[3]; area of TH-positive cells,5 µM
same,cell viability vs MPP+ alone,[4],significantly enhanced
same,effect on MPTP-induced reduction of total distance traveled,[5],attenuated MPTP-induced reduction of total distance traveled of the larvae in a dose dependent manner
same,concentration of Emax of neuroprotective effect on MPP+-induced primary SD rat CGNs damage,[1],50 µM
same,"effect on movement abnormalities (pole test, foot printing duration and stride length, rotarod)",[6],largely corrected the movement abnormalities in a dose-dependent manner
same,concentration of maximum efficacy (Emax) of neuroprotective effect on 6-OHDA-induced PC12 cell damage,[7]; 1 mM 6-OHDA for 2 hours,50 µM
same,cytotoxicity on PC12 cells,"[7]; all tested concentrations (6 μM to 50 μM), 12 hours",did not exhibit any cytotoxicity
same,effect on 6-OHDA cytotoxicity to PC12 cells,"[7]; pretreated 6 μM to 50 μM for 12 hours, then 1 mM 6-OHDA for 2 hours",could alleviate the cytotoxic effect in a dose-dependent manner
"C#CCN[C@@H]1CCc2ccccc21 [rasagiline, reference compound]",effect on MPTP-induced TH-positive cell body loss in SNpc,"[2]; rasagiline 1 mg/kg i.g., same schedule",prevented against the MPTP-induced TH-positive cell body loss
"CC(C)[C@@H](CCC(=O)O)C1=CC(C)(O)CCC1=O (stereo partly drawn) [Compound 3, (4R)-4-(3-hydroxy-3-methyl-6-oxocyclohex-1-enyl)-5-methylhexanoic acid]",concentration of Emax of neuroprotective effect on MPP+-induced primary SD rat CGNs damage,[1],25 µM
"Cc1ccc(O)c([C@@H](CCC(=O)O)C(C)C)c1 [Compound 4, (S)-4-(2-hydroxy-5-methylphenyl)-5-methylhexanoic acid]",concentration of Emax of neuroprotective effect on MPP+-induced primary SD rat CGNs damage,[1],12 µM
"Cc1ccc(O)c(C(CCC(=O)O)C(C)C)c1 (racemic) [Compound 5, 4-(2-hydroxy-5-methylphenyl)-5-methylhexanoic acid]",concentration of Emax of neuroprotective effect on MPP+-induced primary SD rat CGNs damage,[1],50 µM
"O=c1cc(-c2ccccc2)oc2cc(O)c(O)c(O)c12 [baicalein, reference compound]",protection of PC12 cells against 6-OHDA-induced neuronal damage,[7]; positive control at 100 μM,obviously protected
